Consider 12 molecules from US6949542B2, “Dihydro-benzo[b][1,4]diazepin-2-one derivatives” (Hoffman-La Roche Inc., priority 2002, dated 2005).

Data set [1] concerns the target T1, rat mGlu2 receptor (Rattus norvegicus, UniProt P31421).
T1 construct: expressed in transfected cells; vector pcD1mGR2
Description: [3H]-LY354740 binding on mGlu2 transfected CHO cell membranes. Particulars: inhibition of 10 nM [3H]-LY354740 binding, mGlu2 transfected CHO cell membranes, room temperature, 1 hour; read-out: Ki mGlu2.
Description: [^3H]-LY354740 Binding on mGlu2 Transfected CHO Cell Membranes
Transfection and Cell Culture
The cells were maintained in Dulbecco's Modified Eagle medium with reduced L-glutamine (2 mM final concentration) and 10% dialysed foetal calf serum from Gibco BRL (Basel, Switzerland).
Cells, cultured as above, were harvested and washed three times with cold PBS and frozen at −80° C. The pellet was resuspended in cold 20 mM HEPES-NaOH buffer containing 10 mM EDTA (pH 7.4), and homogenised with a polytron (Kinematica, AG, Littau, Switzerland) for 10 s at 10 000 rpm. After centrifugation for 30 min. at 4° C., the pellet was washed once with the same buffer, and once with cold 20 mM HEPES-NaOH buffer containing 0.1 mM EDTA, (pH 7.4). Protein content was measured using the Pierce method (Socochim, Lausanne, Switzerland) using bovine serum albumin as standard.
After thawing, the membranes were resuspended in cold 50 mM Tris-HCl buffer containing 2 mM MgCl2 and 2 mM CaCl2, (pH 7) (binding buffer). The final concentration of the membranes in the assays was 25 μg protein/ml. Inhibition experiments were performed with membranes incubated with 10 nM [^3H]-LY354740 at room temperature, for 1 hour, in presence of various concentrations of the compound to be tested. Following the incubations, membranes were filtered onto Whatmann GF/C glass fiber filters and washed 5 times with cold binding buffer. Non specific binding was measured in the presence of 10 μM DCG IV. After transfer of the filters into plastic vials containing 10 ml of Ultima-gold scintillation fluid (Packard, Zürich, Switzerland), the radioactivity was measured by liquid scintillation in a Tri-Carb 2500 TR counter (Packard, Zürich, Switzerland).
The inhibition curves were fitted with a four parameter logistic equation giving IC50 values, and Hill coefficients.

T1 sequence (P31421 19-872): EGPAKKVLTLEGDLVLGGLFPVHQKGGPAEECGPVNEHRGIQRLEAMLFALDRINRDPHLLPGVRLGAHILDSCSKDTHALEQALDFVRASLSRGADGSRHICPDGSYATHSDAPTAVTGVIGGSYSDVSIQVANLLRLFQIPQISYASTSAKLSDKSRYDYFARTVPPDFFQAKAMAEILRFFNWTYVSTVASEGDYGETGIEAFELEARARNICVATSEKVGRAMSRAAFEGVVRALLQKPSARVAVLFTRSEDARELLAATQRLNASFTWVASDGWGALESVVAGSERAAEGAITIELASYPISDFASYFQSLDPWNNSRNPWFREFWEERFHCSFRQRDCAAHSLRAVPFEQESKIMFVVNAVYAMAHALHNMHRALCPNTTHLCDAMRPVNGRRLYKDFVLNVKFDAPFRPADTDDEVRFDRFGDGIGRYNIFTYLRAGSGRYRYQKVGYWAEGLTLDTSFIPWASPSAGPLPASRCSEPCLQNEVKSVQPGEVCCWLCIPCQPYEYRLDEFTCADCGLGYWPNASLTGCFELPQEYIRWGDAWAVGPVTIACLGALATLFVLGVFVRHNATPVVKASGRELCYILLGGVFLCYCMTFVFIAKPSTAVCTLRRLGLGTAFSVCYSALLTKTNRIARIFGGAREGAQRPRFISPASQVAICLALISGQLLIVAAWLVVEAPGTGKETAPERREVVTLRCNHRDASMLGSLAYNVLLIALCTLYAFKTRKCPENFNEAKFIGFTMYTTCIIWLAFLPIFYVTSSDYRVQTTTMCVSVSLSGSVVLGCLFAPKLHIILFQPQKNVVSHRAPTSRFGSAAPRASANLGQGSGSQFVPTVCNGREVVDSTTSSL

Molecule `O=C1CC(c2cccc(-c3ccncc3)c2)=Nc2cc(Cl)c(Cl)cc2N1` [Example 2, 7,8-Dichloro-4-(3-pyridin-4-yl-phenyl)-1,3-dihydro-benzo[b][1,4]diazepin-2-one] registered a melting point of 240 °C. Besides, the Ki in data set [1] amounted to 3.4 nM.

On to `O=C1CC(c2cccc(-c3ccccn3)c2)=Nc2cc(Cl)c(Cl)cc2N1` [Example 5, 7,8-Dichloro-4-(3-pyridin-2-yl-phenyl)-1,3-dihydro-benzo[b][1,4]diazepin-2-one], for which the melting point turned out to be 239 °C. In addition, the inhibition constant (Ki) in data set [1] was 23.5 nM.

In the case of `Cc1ccc(-c2cccc(C3=Nc4ccc(C(F)(F)F)cc4NC(=O)C3)c2)cn1` [Example 9, 4-[3-(6-Methyl-pyridin-3-yl)-phenyl]-8-trifluoromethyl-1,3-dihydro-benzo[b][1,4]diazepin-2-one], the melting point was in the range of 215 to 218 °C. In addition, the Ki in data set [1] came to 5.5 nM.

For the molecule `Cc1ccc(-c2cccc(C3=Nc4ccc(-c5ccccc5F)cc4NC(=O)C3)c2)cn1` [Example 12, 8-(2-Fluoro-phenyl)-4-[3-(6-methyl-pyridin-3-yl)-phenyl]-1,3-dihydro-benzo[b][1,4]diazepin-2-one], the melting point lay in the range of 206 to 209 °C. Besides, the inhibitory constant (Ki) in data set [1] was 3.9 nM.

Turning to `Cc1ncccc1-c1cccc(C2=Nc3cc(N(C)C)c(C(F)(F)F)cc3NC(=O)C2)c1` [Example 13, 7-Dimethylamino-4-[3-(2-methyl-pyridin-3-yl)-phenyl]-8-trifluoromethyl-1,3-dihydro-benzo[b][1,4]diazepin-2-one], the melting point was 229 to 230 °C. Moreover, the Ki in data set [1] was 6 nM.

The molecule `Cc1ccc(-c2cccc(C3=Nc4ccc(-c5ccccc5F)cc4NC(=O)C3)c2)nn1` [Example 16, 8-(2-Fluoro-phenyl)-4-[3-(6-methyl-pyridazin-3-yl)-phenyl]-1,3-dihydro-benzo[b][1,4]diazepin-2-one] displayed a melting point of 225 °C. Also, the inhibition constant Ki in data set [1] was found to be 16.5 nM.

`Cc1cc2c(cc1C(F)(F)F)N=C(c1cccc(-c3cccnc3)c1)CC(=O)N2` [Example 25, 8-Methyl-4-(3-pyridin-3-yl-phenyl)-7-trifluoromethyl-1,3-dihydro-benzo[b][1,4]diazepin-2-one]: the melting point worked out at 221 °C. Moreover, in data set [1], the Ki stood at 2.8 nM.

`O=C1CC(c2cccc(-c3cccnc3)c2)=Nc2ccc(Cl)cc2N1` [Example 28, 8-Chloro-4-(3-pyridin-3-yl-phenyl)-1,3-dihydro-benzo[b][1,4]diazepin-2-one] gave a melting point of 232 °C. Further, the Ki in data set [1] was 2 nM.

As to `O=C1CC(c2cccc(-c3ccncc3)c2)=Nc2cc(OCC(F)(F)F)c(C(F)(F)F)cc2N1` [Example 37, 4-(3-Pyridin-4-yl-phenyl)-7-(2,2,2-trifluoro-ethoxy)-8-trifluoromethyl-1,3-dihydro-benzo[b][1,4]diazepin-2-one], the melting point is 221 to 222 °C (dec.). Further, the Ki in data set [1] worked out at 1.55 nM.

In turn, `COc1ccc(-c2cccc(C3=Nc4ccc(-c5ccccc5F)cc4NC(=O)C3)c2)nn1` [Example 41, 8-(2-Fluoro-phenyl)-4-[3-(6-methoxy-pyridazin-3-yl)-phenyl]-1,3-dihydro-benzo[b][1,4]diazepin-2-one] registered a melting point of 220 °C. In data set [1], the inhibition constant Ki worked out at 24.5 nM.

The molecule `COc1cc2c(cc1C(F)(F)F)NC(=O)CC(c1cccc(-c3ccccn3)c1)=N2` [Example 42, 7-Methoxy-4-(3-pyridin-2-yl-phenyl)-8-trifluoromethyl-1,3-dihydro-benzo[b][1,4]diazepin-2-one] showed a melting point of 240 °C. Besides, in data set [1], the Ki was found to be 27 nM.

`Cc1ccc(-c2cccc(C3=Nc4cc(N(C)C)c(C(F)(F)F)cc4NC(=O)C3)c2)c(C)n1` [Example 47, 7-Dimethylamino-4-[3-(2,6-dimethyl-pyridin-3-yl)-phenyl]-8-trifluoromethyl-1,3-dihydro-benzo[b][1,4]diazepin-2-one] had a melting point of 187 to 189 °C. Moreover, the Ki in data set [1] is 22.5 nM.
